The target of one assay is T1, human GCGR (Homo sapiens, UniProt P47871).
T1 construct: expressed in transfected cells; growth medium holds Blasticidin and Hygromycin
The experiment in a line: cAMP activity assay at the Glucagon receptor (GCGR). The settings on record: for hGCGR/hGLP1R (hTone): ratio of GCGR EC50 to GLP1R EC50. The assay is classed as cell-based. The essentials: (§1)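 Peptides serially diluted from DMSO (10 points) and added to frozen-stock cells bearing human GLP1R (10,000 cells/well) or GCGR (30,000 cells/well), 1 h at RT, dark. EC50 by four-parameter logistic fit of HitHunter cAMPXS luminescence, read following overnight RT incubation.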

Another assay has as its target T2, human GLP1R (Homo sapiens, UniProt P43220).
T2 construct: expressed in transfected cells; growth medium holds Blasticidin and Hygromycin
The experiment in a line: cAMP activity assay at the GLP-1 receptor (GLP1R). The class given is cell-based. The essentials:
as §1

Setting [1] is: summary statement: EC50 at each of the glucagon and GLP-1 receptors, read-out: EC50 at the glucagon receptor.
Setting [2] is: summary statement: EC50 at each of the glucagon and GLP-1 receptors, read-out: EC50 at the GLP-1 receptor.

Like-named read-outs stand apart in the source and are kept apart here. Numbered stars: 1 amine (or outer) side, 2 acyl side, 3 side chain; on linkers, the order of the positions; unused ones are H or OH. Square brackets hold non-standard residues; d marks the D form. Side chains are listed from the residue outwards. Peptide text beside a SMILES is read from it. * marks the point of attachment. C20 diacid = O=C(O)CCCCCCCCCCCCCCCCCCC(=O)*; Phe(4-CH2NH2) = NCc1ccc(C[C@H](N)C(=O)O)cc1; C18 diacid = O=C(O)CCCCCCCCCCCCCCCCC(=O)*; C16 diacid = O=C(O)CCCCCCCCCCCCCCC(=O)*; γGlu = O=C(O)[C@H](CCC(=O)[*:2])N[*:1]; Met(O2) = CS(=O)(=O)CC[C@H](N)C(=O)O; αMeD = C[C@](N)(CC(=O)O)C(=O)O; AEEA = NCCOCCOCC(=O)O; Aib = CC(C)(N)C(=O)O Some results are limits rather than exact numbers.

T2 sequence (P43220 24-463): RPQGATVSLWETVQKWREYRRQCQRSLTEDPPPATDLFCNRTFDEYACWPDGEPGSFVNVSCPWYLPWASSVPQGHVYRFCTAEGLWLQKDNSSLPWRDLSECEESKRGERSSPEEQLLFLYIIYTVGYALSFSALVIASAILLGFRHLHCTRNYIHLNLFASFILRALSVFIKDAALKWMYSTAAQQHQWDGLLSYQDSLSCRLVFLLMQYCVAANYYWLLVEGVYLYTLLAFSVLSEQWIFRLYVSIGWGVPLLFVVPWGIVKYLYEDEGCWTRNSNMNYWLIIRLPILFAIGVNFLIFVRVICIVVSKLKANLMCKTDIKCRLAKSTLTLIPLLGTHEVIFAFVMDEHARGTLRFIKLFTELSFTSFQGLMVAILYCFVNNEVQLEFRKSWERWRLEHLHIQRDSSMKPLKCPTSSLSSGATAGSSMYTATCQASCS
T1 sequence (P47871 26-477): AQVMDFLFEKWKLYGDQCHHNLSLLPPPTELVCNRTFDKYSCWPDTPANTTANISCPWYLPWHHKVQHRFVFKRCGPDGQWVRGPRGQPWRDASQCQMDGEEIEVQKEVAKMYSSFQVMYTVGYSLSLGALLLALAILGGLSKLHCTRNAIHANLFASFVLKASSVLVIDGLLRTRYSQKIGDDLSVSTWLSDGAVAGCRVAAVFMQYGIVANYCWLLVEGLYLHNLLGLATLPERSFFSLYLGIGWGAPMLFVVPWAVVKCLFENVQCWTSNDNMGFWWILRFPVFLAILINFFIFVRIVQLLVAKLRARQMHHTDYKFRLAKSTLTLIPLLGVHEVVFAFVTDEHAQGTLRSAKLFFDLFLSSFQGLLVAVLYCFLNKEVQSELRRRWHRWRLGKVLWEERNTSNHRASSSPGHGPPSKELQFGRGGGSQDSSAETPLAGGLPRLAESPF

For orientation: EC50 means the midpoint of the concentration-response curve. As for `CC(C)C[C@H](NC(=O)[C@H](Cc1ccc(O)cc1)NC(=O)[C@H](CCCCN)NC(=O)[C@H](CO)NC(=O)[C@H](Cc1ccc(O)cc1)NC(=O)[C@H](CC(=O)O)NC(=O)[C@H](CO)NC(=O)[C@@H](NC(=O)[C@H](Cc1ccccc1)NC(=O)[C@@H](NC(=O)CNC(=O)[C@H](CCC(N)=O)NC(=O)C(C)(C)NC(=O)[C@@H](N)Cc1c[nH]cn1)[C@@H](C)O)[C@@H](C)O)C(=O)N[C@@H](CC(=O)O)C(=O)N[C@@H](C)C(=O)N[C@@H](CCCNC(=N)N)C(=O)N[C@@H](C)C(=O)N[C@@H](C)C(=O)N[C@@H](CCCCNC(=O)COCCOCCNC(=O)COCCOCCNC(=O)CC[C@H](NC(=O)CCCCCCCCCCCCCCCCCCC(=O)O)C(=O)O)C(=O)N[C@@](C)(CC(=O)O)C(=O)N[C@@H](Cc1ccccc1)C(=O)N[C@H](C(=O)N[C@@H](CCC(N)=O)C(=O)N[C@@H](Cc1c[nH]c2ccccc12)C(=O)N[C@@H](CC(C)C)C(=O)N[C@@H](CCS(C)(=O)=O)C(=O)N[C@@H](CC(=O)O)C(=O)N[C@H](C(N)=O)[C@@H](C)O)C(C)C` [TP594] (H-H[Aib]QGTFTSDYSKYLDARAAK([AEEA-AEEA-γGlu-C20 diacid])[αMeD]FVQWL[Met(O2)]DT-NH2; N-terminus assumed), the concentration giving a half-maximal response (EC50) at human GCGR (cells expressing human GCGR, cAMP production, buffer with or without 20% human serum (not stated which), read-out: GCGR EC50 human) is 4.95 nM; at human GCGR (setting [1]) it was less than 5 nM; on human GLP1R (setting [2]), less than 5 nM. Further, at human GCGR, the “hGCGR/hGLP1R (hTone)” value was determined as 1.9.
Take `CC(C)C[C@H](NC(=O)[C@H](Cc1c[nH]c2ccccc12)NC(=O)[C@H](CCC(N)=O)NC(=O)[C@@H](NC(=O)[C@H](Cc1ccccc1)NC(=O)[C@H](CC(=O)O)NC(=O)[C@H](CCCCNC(=O)COCCOCCNC(=O)COCCOCCNC(=O)CC[C@H](NC(=O)CCCCCCCCCCCCCCCCCCC(=O)O)C(=O)O)NC(=O)[C@H](C)NC(=O)[C@H](C)NC(=O)[C@H](CCCNC(=N)N)NC(=O)C(C)(C)NC(=O)[C@H](CC(=O)O)NC(=O)[C@H](CC(C)C)NC(=O)[C@H](Cc1ccc(O)cc1)NC(=O)[C@H](CCCCN)NC(=O)[C@H](CO)NC(=O)[C@H](Cc1ccc(O)cc1)NC(=O)[C@H](CC(=O)O)NC(=O)[C@H](CO)NC(=O)[C@@H](NC(=O)[C@H](Cc1ccccc1)NC(=O)[C@@H](NC(=O)CNC(=O)[C@H](CCC(N)=O)NC(=O)[C@@H](CO)NC(=O)[C@@H](N)Cc1c[nH]cn1)[C@@H](C)O)[C@@H](C)O)C(C)C)C(=O)N[C@@H](CCS(C)(=O)=O)C(=O)N[C@@H](CC(=O)O)C(=O)N[C@H](C(N)=O)[C@@H](C)O` [TP578]: the concentration giving a half-maximal response (EC50) on human GCGR (setting [1]) was less than 5 nM; on human GLP1R (cells expressing human GLP1R, cAMP production, buffer with or without 20% human serum (not stated which), read-out: GLP1R EC50 human) it was 4.95 nM; on human GLP1R (setting [2]) it was less than 5 nM.
On to `CC(C)C[C@H](NC(=O)[C@H](Cc1ccc(O)cc1)NC(=O)[C@H](CCCCN)NC(=O)[C@H](CO)NC(=O)[C@H](Cc1ccc(O)cc1)NC(=O)[C@H](CC(=O)O)NC(=O)[C@H](CO)NC(=O)[C@@H](NC(=O)[C@H](Cc1ccccc1)NC(=O)[C@@H](NC(=O)CNC(=O)[C@H](CCC(N)=O)NC(=O)C(C)(C)NC(=O)[C@@H](N)Cc1c[nH]cn1)[C@@H](C)O)[C@@H](C)O)C(=O)N[C@@H](CC(=O)O)C(=O)N[C@@H](C)C(=O)N[C@@H](CCCNC(=N)N)C(=O)N[C@@H](C)C(=O)N[C@@H](C)C(=O)N[C@@H](CCCCNC(=O)COCCOCCNC(=O)COCCOCCNC(=O)CC[C@H](NC(=O)CCCCCCCCCCCCCCC(=O)O)C(=O)O)C(=O)N[C@@H](CC(=O)O)C(=O)N[C@@H](Cc1ccccc1)C(=O)N[C@H](C(=O)N[C@@H](CCC(N)=O)C(=O)N[C@@H](Cc1c[nH]c2ccccc12)C(=O)N[C@@H](CC(C)C)C(=O)N[C@@H](CCS(C)(=O)=O)C(=O)N[C@@H](CCC(=O)O)C(=O)N[C@H](C(N)=O)[C@@H](C)O)C(C)C` [TP814] (H-H[Aib]QGTFTSDYSKYLDARAAK([AEEA-AEEA-γGlu-C16 diacid])DFVQWL[Met(O2)]ET-NH2; N-terminus assumed), for which, on human GCGR, the “hGCGR/hGLP1R (hTone)” value turned out to be 2.0. The half-maximal effective concentration (EC50) at human GCGR (setting [1]) and on human GLP1R (setting [2]) was less than 5 nM throughout.
Regarding `CC(C)C[C@H](NC(=O)[C@H](Cc1ccc(O)cc1)NC(=O)[C@H](CCCCN)NC(=O)[C@H](CO)NC(=O)[C@H](Cc1ccc(O)cc1)NC(=O)[C@H](CC(=O)O)NC(=O)[C@H](CO)NC(=O)[C@@H](NC(=O)[C@H](Cc1ccccc1)NC(=O)[C@@H](NC(=O)CNC(=O)[C@H](CCC(N)=O)NC(=O)C(C)(C)NC(=O)[C@@H](N)Cc1c[nH]cn1)[C@@H](C)O)[C@@H](C)O)C(=O)N[C@@H](CC(=O)O)C(=O)N[C@@H](C)C(=O)N[C@@H](CCCNC(=N)N)C(=O)N[C@@H](C)C(=O)N[C@@H](C)C(=O)N[C@@H](CCCCNC(=O)COCCOCCNC(=O)COCCOCCNC(=O)CC[C@H](NC(=O)CCCCCCCCCCCCCCCCC(=O)O)C(=O)O)C(=O)N[C@@H](CC(=O)O)C(=O)N[C@@H](Cc1ccccc1)C(=O)N[C@H](C(=O)N[C@@H](CCC(N)=O)C(=O)N[C@@H](Cc1c[nH]c2ccccc12)C(=O)N[C@@H](CC(C)C)C(=O)N[C@@H](CCS(C)(=O)=O)C(=O)N[C@@H](CCC(N)=O)C(=O)N[C@H](C(N)=O)[C@@H](C)O)C(C)C` [TP600] (H-H[Aib]QGTFTSDYSKYLDARAAK([AEEA-AEEA-γGlu-C18 diacid])DFVQWL[Met(O2)]QT-NH2; N-terminus assumed), the “hGCGR/hGLP1R (hTone)” value at human GCGR is given as 3.1. Also, the concentration giving a half-maximal response (EC50) at human GCGR (setting [1]) and on human GLP1R (setting [2]) was less than 5 nM each time.
Consider `CC(C)C[C@H](NC(=O)[C@H](Cc1ccc(O)cc1)NC(=O)[C@H](CCCCN)NC(=O)[C@H](CO)NC(=O)[C@H](Cc1ccc(CNC(=O)COCCOCCNC(=O)CC[C@H](NC(=O)CCCCCCCCCCCCCCC(=O)O)C(=O)O)cc1)NC(=O)[C@H](CC(=O)O)NC(=O)[C@H](CO)NC(=O)[C@@H](NC(=O)[C@H](Cc1ccccc1)NC(=O)[C@@H](NC(=O)CNC(=O)[C@H](CCC(N)=O)NC(=O)C(C)(C)NC(=O)[C@@H](N)Cc1c[nH]cn1)[C@@H](C)O)[C@@H](C)O)C(=O)N[C@@H](CC(=O)O)C(=O)N[C@@H](C)C(=O)N[C@@H](CCCNC(=N)N)C(=O)N[C@@H](C)C(=O)N[C@@H](C)C(=O)N[C@@H](CCC(N)=O)C(=O)N[C@@H](CC(=O)O)C(=O)N[C@@H](Cc1ccccc1)C(=O)N[C@H](C(=O)N[C@@H](CCC(N)=O)C(=O)N[C@@H](Cc1c[nH]c2ccccc12)C(=O)N[C@@H](CC(C)C)C(=O)N[C@@H](CCS(C)(=O)=O)C(=O)N[C@@H](CC(=O)O)C(=O)N[C@H](C(N)=O)[C@@H](C)O)C(C)C` [TP622] (H-H[Aib]QGTFTSD[Phe(4-CH2NH2)]([AEEA-γGlu-C16 diacid])SKYLDARAAQDFVQWL[Met(O2)]DT-NH2; N-terminus assumed), for which the “hGCGR/hGLP1R (hTone)” value on human GCGR was 0.4. Moreover, the EC50 on human GCGR (setting [1]) and on human GLP1R (setting [2]) was less than 5 nM in each case.
